Source: US6545049B1, “Dimer-selective RXR modulators and methods for their use” (Ligand Pharmaceuticals Incorporated, priority 1995, dated 2003)
pKd: −log10 of the molar value.

What was measured:
[1] = molecular target: T1, RXRα (Homo sapiens, UniProt P19793); assay: RXR binding, RXRα; settings: -v- tritiated LGD1069 and tritiated 9-cis retinoic acid
T1 sequence (P19793 1-462): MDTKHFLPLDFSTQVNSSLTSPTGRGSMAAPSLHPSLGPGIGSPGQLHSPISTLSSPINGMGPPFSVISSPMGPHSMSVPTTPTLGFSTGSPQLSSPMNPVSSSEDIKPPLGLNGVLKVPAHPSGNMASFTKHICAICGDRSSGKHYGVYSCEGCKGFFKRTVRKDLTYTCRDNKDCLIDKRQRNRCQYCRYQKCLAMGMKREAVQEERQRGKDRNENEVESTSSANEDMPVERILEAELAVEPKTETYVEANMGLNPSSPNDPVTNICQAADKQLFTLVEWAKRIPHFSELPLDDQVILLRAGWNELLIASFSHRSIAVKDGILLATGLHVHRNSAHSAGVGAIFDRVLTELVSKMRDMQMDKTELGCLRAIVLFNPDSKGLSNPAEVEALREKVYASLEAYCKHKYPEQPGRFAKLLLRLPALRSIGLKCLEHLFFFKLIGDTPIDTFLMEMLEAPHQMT
Method: (§1) Non-specific binding was defined as that binding remaining in the presence of 500 nM of the appropriate unlabelled compound. At the end of the incubation period, bound from free ligand were separated. The amount of bound tritiated retinoids was determined by liquid scintillation counting of an aliquot (700 μL) of the supernatant fluid or the hydroxylapatite pellet.
(§2) After correcting for non-specific binding, IC50 values were determined. […] The IC50 value was determined graphically from a log-logit plot of the data. The Kd values were determined by application of the Cheng-Prussof equation to the IC50 values, the labeled ligand concentration and the Kd of the labeled ligand.

[2] = molecular target: T2, RXRβ (Mus musculus, UniProt P28704); assay: RXR binding, RXRβ; settings: -v- tritiated LGD1069 and tritiated 9-cis retinoic acid
T2 sequence (P28704 1-520): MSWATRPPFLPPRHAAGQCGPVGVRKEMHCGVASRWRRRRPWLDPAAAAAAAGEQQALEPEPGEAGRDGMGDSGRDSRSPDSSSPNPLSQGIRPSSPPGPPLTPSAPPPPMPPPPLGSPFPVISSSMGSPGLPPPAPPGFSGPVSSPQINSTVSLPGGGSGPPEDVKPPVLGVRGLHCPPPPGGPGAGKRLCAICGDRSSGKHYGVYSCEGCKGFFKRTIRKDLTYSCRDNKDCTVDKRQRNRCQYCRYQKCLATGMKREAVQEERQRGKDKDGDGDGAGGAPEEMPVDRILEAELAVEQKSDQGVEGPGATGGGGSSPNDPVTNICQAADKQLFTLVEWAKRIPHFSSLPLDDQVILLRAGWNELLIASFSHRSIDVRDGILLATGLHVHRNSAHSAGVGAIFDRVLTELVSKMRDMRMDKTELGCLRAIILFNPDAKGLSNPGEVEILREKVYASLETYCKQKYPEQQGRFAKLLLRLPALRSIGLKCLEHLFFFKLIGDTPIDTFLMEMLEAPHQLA
Method: as §1, §2

[3] = molecular target: T3, RXRγ (Mus musculus, UniProt P28705); assay: RXR binding, RXRγ; settings: -v- tritiated LGD1069 and tritiated 9-cis retinoic acid
T3 sequence (P28705 1-463): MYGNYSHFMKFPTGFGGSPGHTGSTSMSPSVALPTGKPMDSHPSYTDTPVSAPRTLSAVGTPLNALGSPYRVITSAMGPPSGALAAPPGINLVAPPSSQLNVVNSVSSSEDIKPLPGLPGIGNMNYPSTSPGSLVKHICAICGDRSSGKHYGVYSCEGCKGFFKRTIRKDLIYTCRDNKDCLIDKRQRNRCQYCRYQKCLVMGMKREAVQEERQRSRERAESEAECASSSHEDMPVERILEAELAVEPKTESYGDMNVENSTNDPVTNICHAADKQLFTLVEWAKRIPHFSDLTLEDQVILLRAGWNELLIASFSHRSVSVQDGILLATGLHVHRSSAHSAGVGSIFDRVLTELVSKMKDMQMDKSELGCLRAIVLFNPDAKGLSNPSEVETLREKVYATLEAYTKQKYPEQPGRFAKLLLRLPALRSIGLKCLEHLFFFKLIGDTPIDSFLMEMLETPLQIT
Method: as §1, §2

Row | Structure (SMILES) | melting point | pKd [1] | pKd [2] | pKd [3]
1 | CCCc1cc2c(cc1C(=O)c1ccc(C(=O)O)cc1)C(C)(C)CCC2(C)C [Compound 101, 4-[(3-n-propyl-5,6,7,8-tetrahydro-5,5,8,8-tetramethyl-2-naphthyl)carbonyl]benzoic acid] | 252 to 254 °C | – | – | –
2 | Cc1cc2c(cc1C(=O)c1ccc(C(=O)NOCc3ccccc3)cc1)C(C)(C)CCC2(C)C [Compound 105, 4-[(3,5,5,8,8-pentamethyl-5,6,7,8-tetrahydro-2-naphthyl)carbonyl]benzoic acid O-benzyloxime] | 169 to 172 °C | – | – | –
3 | CCCCCCONC(=O)c1ccc(C(=O)c2cc3c(cc2C)C(C)(C)CCC3(C)C)cc1 [Compound 106, 4-[(3,5,5,8,8-pentamethyl-5,6,7,8-tetrahydro-2-naphthyl)carbonyl]benzoic acid O-hexyloxime] | 91 to 95 °C | – | – | –
4 | CCOc1cc2c(cc1C=Cc1ccc(C(=O)O)cc1)C(C)(C)CCC2(C)C [Compound 107, 4-[(3-ethoxy-5,6,7,8-tetrahydro-5,5,8,8-tetramethyl-2-naphthyl)ethenyl]benzoic acid] | 195 to 200 °C (dec.) | – | – | –
5 | CCCCOc1cc2c(cc1C(=O)c1ccc(C(=O)O)cc1)C(C)(C)CCC2(C)C [Compound 111, 4-[(3-butyloxy-5,6,7,8-tetrahydro-5,5,8,8-tetramethyl-2-naphthyl)carbonyl]benzoic acid] | 207 to 210 °C | – | – | –
6 | CCCCOc1cc2c(cc1C=Cc1ccc(C(=O)O)cc1)C(C)(C)CCC2(C)C [Compound 112, 4-[(3-butyloxy-5,6,7,8-tetrahydro-5,5,8,8-tetramethyl-2-naphthyl)ethenyl]benzoic acid] | 194 to 196 °C | – | – | –
7 | CCCCCCCOc1cc2c(cc1C(=O)c1ccc(C(=O)NO)cc1)C(C)(C)CCC2(C)C [Compound 115, 4-[(3-heptyloxy-5,6,7,8-tetrahydro-5,5,8,8-tetramethyl-2-naphthyl)carbonyl]benzoic acid oxime] | 200 to 205 °C | – | – | –
8 | CCCCCCCOc1cc2c(cc1C=Cc1ccc(C(=O)O)cc1)C(C)(C)CCC2(C)C [Compound 116, 4-[(3-heptyloxy-5,6,7,8-tetrahydro-5,5,8,8-tetramethyl-2-naphthyl)ethenyl]benzoic acid] | 153 to 155 °C | – | – | –
9 | CCCCCCOc1cc2c(cc1/C(C)=C/C=C/C(C)=C/C(=O)O)C(C)(C)CCC2(C)C [Compound 125, (2E, 4E, 6E)-7-[3-hexyloxy-5,6,7,8-tetrahydro-5,5,8,8-tetramethyl-2-naphthalen-2-yl]-3-methylocta-2,4,6-trienoic acid] | – | 7.25 | 6.84 | 6.73
10 | COC(C)(c1ccc(C(=O)O)cc1)c1cccc2cc3c(cc12)C(C)(C)CCC3(C)C (stereo not shown) [Compound 141, 4-[1-methoxy-1-(5,6,7,8-tetrahydro-5,5,8,8-tetramethyl-anthracen-1-yl)ethyl)benzoic acid] | – | 7.31 | 7.89 | 7.15
11 | C=C(c1ccc(C(=O)O)cc1)c1cccc2cc3c(cc12)C(C)(C)CCC3(C)C [Compound 142, 4-[1-(5,6,7,8-tetrahydro-5,5,8,8-tetramethyl-anthracen-1-yl)vinyl)benzoic acid] | – | 7.57 | 7.05 | 7.30
12 | CCCCCCCOc1c(/C(C)=C/C=C/C(C)=C/C(=O)O)cc(C(C)C)cc1C(C)C [Compound 146, (2E, 4E, 6E)-7-(3,5-diisopropyl-2-n-heptyloxyphenyl)-3-methylocta-2,4,6-trienoic acid] | – | 7.34 | 7.00 | 6.94
13 | CCCCCCCOc1c(C(C)C)cc(C(C)C)cc1C(C)C/C=C/C(C)=C/C(=O)O (stereo not shown) [Compound 148, (2E, 4E)-7-(3,5-diisopropyl-2-n-heptyloxyphenyl)-3-methylocta-2,4-dienoic acid] | – | 7.28 | 7.06 | 7.08
14 | CCCCCCCOc1c(C(C)C)cc(C(C)C)cc1C(C)C/C=C/C(C)=C\C(=O)O (stereo not shown) [Compound 149, (2Z, 4E)-7-(3,5-diisopropyl-2-n-heptyloxyphenyl)-3-methylocta-2,4-dienoic acid] | – | 7.80 | 7.43 | 7.38
15 | CCCOc1cc2c(cc1C1=C(/C=C/C(C)=C/C(=O)O)CCC1)C(C)(C)CCC2(C)C [Compound 158, (2E, 4E)-5-[2-(5,5,8,8-tetramethyl-3-propyloxy-5,6,7,8-tetrahydronaphthalen-2yl)cyclopent-1-en-1-yl]-3-methyl pentadienoic cid] | – | 7.68 | 7.28 | 6.97
16 | CC1(C)CCC(C)(C)c2cc(C(=O)c3ccc(C(=O)NO)cc3)c(OCc3ccc(Br)cc3)cc21 [Compound 161, 4-[(3-(4-bromobenzyloxy)-5,6,7,8-tetrahydro-5,5,8,8-tetramethyl-2-naphthyl)carbonyl]benzoic acid oxime] | 221 to 223.5 °C | – | – | –
17 | CON=C(c1ccc(C(=O)O)cc1)c1cc2c(cc1OCc1ccccc1)C(C)(C)CCC2(C)C [Compound 163, trans-4-[(3-benzyloxy-5,6,7,8-tetrahydro-5,5,8,8-tetramethyl-2-naphthyl)carbonyl]benzoic acid O-methyloxime] | – | 8.70 | 8.22 | 8.22
18 | CC1(C)CCC(C)(C)c2cc(C3(c4ccc(C(=O)O)cc4)OCCO3)c(OCc3ccccc3)cc21 [Compound 164, 4-[2-(3-benzyloxy-5,6,7,8-tetrahydro-5,5,8,8-tetramethyl-2-naphthyl)-[1,3]dioxolan-2-yl]benzoic acid] | 222 to 228 °C (dec.) | – | – | –
19 | CC(C=CC=C(C)c1cc2c(cc1OCC(C)C)C(C)(C)CCC2(C)C)=CC(=O)O [Compound 169, (2E, 4E, 6Z)-7-[3-isobutyloxy-5,6,7,8-tetrahydro-5,5,8,8-tetramethyl-2-naphthalen-2-yl]-3-methyl-octa-2,4,6-trienoic acid] | – | 8.30 | 7.85 | 7.51
20 | CCCCCOc1cc2c(cc1/C(C)=C/C=C/C(C)=C/C(=O)O)C(C)(C)CCC2(C)C [Compound 170, (2E, 4E, 6E)-7-[3-pentyloxy-5,6,7,8-tetrahydro-5,5,8,8-tetramethyl-2-naphthalen-2-yl]-3-methyl-octa-2,4,6-trienoic acid] | – | 7.96 | 7.39 | 7.11
21 | CCCCCCCOc1cc2c(cc1\C(C)=C/C=C/C(C)=C/C(=O)O)C(C)(C)CCC2(C)C [Compound 173, (2E, 4E, 6Z)-7-[3-heptyloxy-5,6,7,8-tetrahydro-5,5,8,8-tetramethyl-2-naphthalen-2-yl]-3-methyl-octa-2,4,6-trienoic acid] | – | 8.40 | 7.92 | 7.68
22 | COc1ccc(COc2cc3c(cc2/C(C)=C/C=C/C(C)=C/C(=O)O)C(C)(C)CCC3(C)C)cc1 [Compound 174, (2E, 4E, 6E)-7-[3-(4-methoybenzyloxy)-5,6,7,8-tetrahydro-5,5,8,8-tetramethyl-2-naphthalen-2-yl]-3-methyl-octa-2,4,6-trienoic acid] | – | 8.30 | 7.37 | 7.34
23 | CCCOc1cc2c(cc1C(C)C/C=C/C(C)=C/C(=O)O)C(C)(C)CCC2(C)C (stereo not shown) [Compound 175, (2E, 4E)-7-[3-propoxy-5,6,7,8-tetrahydro-5,5,8,8-tetramethyl-2-naphthalen-2-yl]-3-methyl-octa-2,4-dienoic acid] | – | 7.96 | 7.68 | 7.51
